Laboratory results taken from patent publication EP4782453A1 (Beyang Therapeutics Co., Ltd., priority 2023, dated 2025).
Like-named read-outs stand apart in the source and are kept apart here.

Biological target: T1, Menin-MLL (Homo sapiens, UniProt O00255)
T1 construct: His-Menin (M1-L615 end); purchased BIORTUS BP9210
T1 sequence (O00255 1-615 isoform O00255-1): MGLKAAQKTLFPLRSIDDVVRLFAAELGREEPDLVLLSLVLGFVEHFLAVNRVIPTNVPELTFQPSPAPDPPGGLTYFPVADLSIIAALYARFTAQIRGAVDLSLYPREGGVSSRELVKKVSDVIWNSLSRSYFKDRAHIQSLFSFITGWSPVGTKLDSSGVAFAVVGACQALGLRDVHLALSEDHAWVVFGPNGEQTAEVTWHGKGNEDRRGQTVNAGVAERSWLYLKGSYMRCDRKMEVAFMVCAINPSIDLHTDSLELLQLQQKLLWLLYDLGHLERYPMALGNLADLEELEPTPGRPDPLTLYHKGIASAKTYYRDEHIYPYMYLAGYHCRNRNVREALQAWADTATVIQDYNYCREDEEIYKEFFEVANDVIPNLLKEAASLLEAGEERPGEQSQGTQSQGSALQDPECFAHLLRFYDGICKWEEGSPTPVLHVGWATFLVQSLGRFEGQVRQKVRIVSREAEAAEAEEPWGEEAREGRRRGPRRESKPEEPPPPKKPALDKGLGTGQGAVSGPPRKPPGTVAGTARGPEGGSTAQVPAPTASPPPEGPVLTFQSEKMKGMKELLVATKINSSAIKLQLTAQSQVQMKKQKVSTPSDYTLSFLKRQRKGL
Assay: Inhibitory activity against Menin-MLL binding (fluorescence polarization)
Conditions: 150 nM His-Menin, 15 nM FITC-MLL, 25°C for 60 min
Method in brief: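 His-Menin (M1-L615, 150 nM) preincubated with compound 15 min at 25 °C in HEPES pH 7.5, 50 mM NaCl, 1 mM DTT, 0.01% BSA, then 15 nM FITC-MLL4-43 peptide added for 60 min at 25 °C. Fluorescence polarization read; IC50 from 4-parameter logistic fit, duplicates.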

[1] = fluorescence polarization, read-out: Menin-MLL IC50
[2] = Menin-MLL IC50, fluorescence polarization

| Structure (SMILES) | IC50 [1] | IC50 [2] |
| --- | --- | --- |
| CCN(C(=O)c1cc(F)ccc1-c1cc(C2CN(C(C[C@@H]3CN(C(=O)OC(C)(C)C)CCO3)C(C)C)C2)cn2c(C)ncc12)C(C)C (stereo partly drawn) [Example 461, (2R)-2-{2-[3-(8-{2-[ethyl(isopropyl)aminoformyl]-4-fluorophenyl}-3-methylimidazo[1,5-a]pyridin-6-yl)azacyclobutan-1-yl]-3-methylbutyl}morpholin-4-tert-butyl carboxylate] | 0.043 µM |  |
| CCN(C(=O)c1cc(F)ccc1-c1cc(C2CN(C(C[C@@H]3CNCCO3)C(C)C)C2)cn2c(C)ncc12)C(C)C (stereo partly drawn) [Example 462, N-ethyl-5-fluoro-2-[3-methyl-6-(1-{3-methyl-1-[(2R)-morpholin-2-yl]butan-2-yl}azacyclobutan-3-yl)imidazo[1,5-a]pyridin-8-yl]-N-(isopropyl)benzamide] | 0.011 µM |  |
| CCN(C(=O)c1cc(F)ccc1-c1cc(C2(O)CN([C@H](CCCN3CCN(CCO)CC3)C(C)C)C2)cn2c(C)ncc12)C(C)C [Example 464-1, N-ethyl-5-fluoro-2-(6-{3-hydroxyl-1-[(3R)-6-[4-(2-hydroxylethyl)piperazin-1-yl]-2-methylhexan-3-yl]azacyclobutan-3-yl}-3-methylimidazo[1,5-a]pyridin-8-yl)-N-(isopropyl)benzamide] | 0.015 µM |  |
| CCN(C(=O)c1cc(F)ccc1-c1cc(C2(O)CN([C@@H](CCCN3CCN(CCO)CC3)C(C)C)C2)cn2c(C)ncc12)C(C)C [Example 464-2, N-ethyl-5-fluoro-2-(6-{3-hydroxyl-1-[(3S)-6-[4-(2-hydroxylethyl)piperazin-1-yl]-2-methylhexan-3-yl]azacyclobutan-3-yl}-3-methylimidazo[1,5-a]pyridin-8-yl)-N-(isopropyl)benzamide] | 0.19 µM |  |
| CCN(C(=O)c1cc(F)ccc1-c1cc(C2CN(C(CCCN3C[C@H]4C[C@@H]3CO4)C(C)C)C2)cc2c(C)ncn12)C(C)C (stereo partly drawn) [Example 465, N-ethyl-5-fluoro-2-[1-methyl-7-(1-{2-methyl-6-[(1R,4R)-2-oxa-5-azabicyclo[2.2.1]heptan-5-yl]hexan-3-yl}azacyclobutan-3-yl)imidazo[1,5-a]pyridin-5-yl]-N-(isopropyl)benzamide] | 0.0031 µM |  |
| CCN(C(=O)c1cc(F)ccc1-c1cc(C2CN(C(CCCN3CCN(CCO)CC3)C(C)C)C2)cc2c(C)ncn12)C(C)C (stereo not shown) [Example 466, N-ethyl-5-fluoro-2-[7-(1-{6-[4-(2-hydroxyethyl)piperazin-1-yl]-2-methylhexan-3-yl}azacyclobutan-3-yl)-1-methylimidazo[1,5-a]pyridin-5-yl]-N-(isopropyl)benzamide] | 0.0029 µM |  |
| COCCN(C(=O)c1cc(F)ccc1-c1cc(C2CN([C@@H](CCCN3C[C@H]4C[C@@H]3CO4)C(C)C)C2)cn2c(C)ncc12)C(C)C [Example 467-2, 5-fluoro-N-(2-methoxyethyl)-2-(3-methyl-6-{1-[(3S)-2-methyl-6-[(1R,4R)-2-oxa-5-azadicyclo[2.2.1]heptan-5-yl]hexan-3-yl]azacyclobutan-3-yl}imidazo[1,5-a]pyridin-8-yl)-N-(isopropyl)benzamide] |  | 0.054 µM |
| COCCN(C(=O)c1cc(F)ccc1-c1cc(C2CN(C(CCCN3C[C@H]4C[C@@H]3CO4)C(C)C)C2)cn2c(C)ncc12)C(C)C (stereo partly shown) [Example 467] |  | 0.005 µM |
| CCN(C(=O)c1cc(F)ccc1-c1cc(C2CN(C(CC[C@@H]3COCCN3CCO)C(C)C)C2)cn2c(C)ncc12)C(C)C (stereo partly drawn) [Example 469, N-ethyl-5-fluoro-2-[6-(1-{1-[(3R)-4-(2-hydroxyethyl)morpholin-3-yl]-4-methylpentan-3-yl}azacyclobutan-3-yl)-3-methylimidazo[1,5-a]pyridin-8-yl]-N-(isopropyl)benzamide] | 0.011 µM |  |
| CCOC(=O)N1CCN(CCC[C@H](C(C)C)N2CC(c3cc(-c4ccc(F)cc4C(=O)N(CC)C(C)C)c4cnc(C)n4c3)C2)CC1 [Example 471] |  | 0.0048 µM |
